Results reported in paper PMC3382171 (PLoS ONE, 2012).
Read-outs that look alike come from different tables or passages of the source.

Tests used:
Assay in all cases: biochemical
PKG1alpha = biological target: T1, PKG1alpha (Homo sapiens, UniProt Q13976); conditions: read-out: Upstate KSS % inhibition at 1uM
T1 construct: gene PRKG1; isoform alpha
Description: In these selectivity assays the concentration of ATP was set to the Km value of ATP for each kinase tested to allow for a relative potency comparison between the various kinases. The compounds were tested at 1 µM final concentration. […] (A) Kinase selectivity screen (KSS) performed at Upstate Biotechnology. […] (B) KSS performed at University of Dundee (Division of Signal Transduction Therapy). […] (PDF) Click here for additional data file.

PLK1 [1] = biological target: T2, PLK1 (Homo sapiens, UniProt P53350); parameters: University of Dundee kinase panel, per cent inhibition of phosphorylation at ATP Km
T2 sequence (P53350 whole entry): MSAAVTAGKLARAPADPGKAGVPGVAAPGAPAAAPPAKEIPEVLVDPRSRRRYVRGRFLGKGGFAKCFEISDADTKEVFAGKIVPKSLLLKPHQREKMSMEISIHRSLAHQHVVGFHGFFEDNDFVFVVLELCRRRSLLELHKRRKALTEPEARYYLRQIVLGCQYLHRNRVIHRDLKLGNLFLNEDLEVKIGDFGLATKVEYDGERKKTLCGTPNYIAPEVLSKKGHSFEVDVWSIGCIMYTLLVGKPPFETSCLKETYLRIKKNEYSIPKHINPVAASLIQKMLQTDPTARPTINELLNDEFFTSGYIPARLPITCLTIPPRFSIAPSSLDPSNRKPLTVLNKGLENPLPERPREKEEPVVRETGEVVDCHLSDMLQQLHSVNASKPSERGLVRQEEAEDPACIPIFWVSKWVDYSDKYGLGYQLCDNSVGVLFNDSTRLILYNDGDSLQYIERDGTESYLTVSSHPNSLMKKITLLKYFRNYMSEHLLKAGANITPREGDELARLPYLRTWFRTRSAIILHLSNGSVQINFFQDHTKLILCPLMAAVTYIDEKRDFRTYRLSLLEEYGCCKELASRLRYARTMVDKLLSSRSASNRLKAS
Description: The METi and RAFi were screened against kinase panels (SelectScreen, Invitrogen; University of Dundee, Division of Signal Transduction Therapy, UK; Upstate Biotechnology/Millipore, Billerica, MA). In these selectivity assays the concentration of ATP was set to the Km value of ATP for each kinase tested to allow for a relative potency comparison between the various kinases. The compounds were tested at 1 µM final concentration. […] (A) Kinase selectivity screen (KSS) performed at Upstate Biotechnology. […] (B) KSS performed at University of Dundee (Division of Signal Transduction Therapy). […] (PDF) Click here for additional data file. Supplementary file pone.0039653.s002.pdf: Figure S2 Kinase Selectivity Screen of RAFi. (A) Kinase selectivity screen (KSS) performed at University of Dundee (Division of Signal Transduction Therapy). Values in % inhibition of phosphorylation given 1 µM of RAFi compared to control. (B) KSS performed at Invitrogen (Selectscreen Service) compared to control. Values in % inhibition of phosphorylation given 1 µM of RAFi. (C) Cell based dose response kinase inhibition of indicated kinases by RAFi. (PDF) Click here for additional data file.

mouse LCK = mouse LCK (Mus musculus, UniProt P06240); parameters: University of Dundee kinase panel, percent inhibition of phosphorylation at 1 uM RAFi, ATP at Km; conditions: read-out: Dundee KSS %inh at 1 uM
Sequence of mouse LCK (P06240 whole entry): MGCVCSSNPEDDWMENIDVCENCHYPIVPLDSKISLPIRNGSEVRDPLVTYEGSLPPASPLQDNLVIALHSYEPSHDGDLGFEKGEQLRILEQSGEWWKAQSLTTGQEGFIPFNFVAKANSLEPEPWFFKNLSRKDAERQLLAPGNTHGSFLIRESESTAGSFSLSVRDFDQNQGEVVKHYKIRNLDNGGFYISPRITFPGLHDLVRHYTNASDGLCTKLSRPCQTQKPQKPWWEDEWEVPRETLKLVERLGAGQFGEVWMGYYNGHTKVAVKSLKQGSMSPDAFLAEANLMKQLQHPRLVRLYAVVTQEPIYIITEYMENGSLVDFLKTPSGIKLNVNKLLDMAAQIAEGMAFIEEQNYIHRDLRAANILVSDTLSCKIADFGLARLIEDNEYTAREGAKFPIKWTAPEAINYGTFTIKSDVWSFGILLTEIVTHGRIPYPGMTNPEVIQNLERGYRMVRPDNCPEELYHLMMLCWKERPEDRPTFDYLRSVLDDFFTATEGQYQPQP
Description: (§1) The METi and RAFi were screened against kinase panels (SelectScreen, Invitrogen; University of Dundee, Division of Signal Transduction Therapy, UK; Upstate Biotechnology/Millipore, Billerica, MA). In these selectivity assays the concentration of ATP was set to the Km value of ATP for each kinase tested to allow for a relative potency comparison between the various kinases. The compounds were tested at 1 µM final concentration. […] Supplementary file pone.0039653.s002.pdf: Figure S2 Kinase Selectivity Screen of RAFi. (A) Kinase selectivity screen (KSS) performed at University of Dundee (Division of Signal Transduction Therapy). Values in % inhibition of phosphorylation given 1 µM of RAFi compared to control. (B) KSS performed at Invitrogen (Selectscreen Service) compared to control. Values in % inhibition of phosphorylation given 1 µM of RAFi. (C) Cell based dose response kinase inhibition of indicated kinases by RAFi. (PDF) Click here for additional data file.

EEF-2 kinase = biological target: T3, EEF-2 kinase (Homo sapiens, UniProt O00418); parameters: University of Dundee kinase panel, percent inhibition of phosphorylation at 1 uM RAFi, ATP at Km; conditions: read-out: Dundee KSS %inh at 1 uM
T3 construct: gene EEF2K
Description: as §1

PLK1 [2] = biological target: T2, PLK1; parameters: University of Dundee kinase panel, percent inhibition of phosphorylation at 1 uM RAFi, ATP at Km; conditions: read-out: Dundee KSS %inh at 1 uM
Description: as §1

ERK7 = biological target: T4, ERK7 (Homo sapiens, UniProt Q8TD08); parameters: University of Dundee kinase panel, percent inhibition of phosphorylation at 1 uM RAFi, ATP at Km; conditions: read-out: Dundee KSS %inh at 1 uM
T4 construct: gene MAPK15
T4 sequence (Q8TD08 whole entry): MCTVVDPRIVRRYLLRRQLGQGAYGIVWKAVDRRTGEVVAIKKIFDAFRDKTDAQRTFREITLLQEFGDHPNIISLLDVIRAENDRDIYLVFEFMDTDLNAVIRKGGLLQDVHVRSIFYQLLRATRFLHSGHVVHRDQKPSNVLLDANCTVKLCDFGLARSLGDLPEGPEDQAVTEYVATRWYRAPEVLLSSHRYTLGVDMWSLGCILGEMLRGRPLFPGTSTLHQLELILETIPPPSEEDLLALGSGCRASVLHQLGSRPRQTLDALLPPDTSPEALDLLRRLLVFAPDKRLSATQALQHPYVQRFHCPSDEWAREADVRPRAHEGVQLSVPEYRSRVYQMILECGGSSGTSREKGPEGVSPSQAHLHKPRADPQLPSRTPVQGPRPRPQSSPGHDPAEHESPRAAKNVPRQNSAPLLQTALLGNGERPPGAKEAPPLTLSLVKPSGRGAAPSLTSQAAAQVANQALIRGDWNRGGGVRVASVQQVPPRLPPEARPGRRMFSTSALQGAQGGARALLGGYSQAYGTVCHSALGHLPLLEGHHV
Description: as §1

PIM3 = PIM3 (Homo sapiens, UniProt Q86V86); parameters: University of Dundee kinase panel, percent inhibition of phosphorylation at 1 uM RAFi, ATP at Km; conditions: read-out: Dundee KSS %inh at 1 uM
Description: as §1

mouse ERK2 = biological target: T5, mouse ERK2 (Mus musculus, UniProt P63085); parameters: University of Dundee kinase panel, percent inhibition of phosphorylation at 1 uM RAFi, ATP at Km; conditions: read-out: Dundee KSS %inh at 1 uM
T5 construct: gene Mapk1
T5 sequence (P63085 whole entry): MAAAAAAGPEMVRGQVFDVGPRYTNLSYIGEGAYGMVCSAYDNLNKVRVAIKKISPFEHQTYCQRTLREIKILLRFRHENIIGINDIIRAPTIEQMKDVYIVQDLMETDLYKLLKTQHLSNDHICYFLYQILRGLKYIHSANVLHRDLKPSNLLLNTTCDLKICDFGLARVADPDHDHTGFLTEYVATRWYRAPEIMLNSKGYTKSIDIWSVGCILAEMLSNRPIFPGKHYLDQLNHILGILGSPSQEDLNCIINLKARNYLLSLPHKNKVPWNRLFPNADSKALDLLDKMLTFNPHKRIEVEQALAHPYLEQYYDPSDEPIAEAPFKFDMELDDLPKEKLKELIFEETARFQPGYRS
Description: as §1

rabbit MEK1 = biological target: T6, rabbit MEK1 (Oryctolagus cuniculus, UniProt P29678); parameters: University of Dundee kinase panel, percent inhibition of phosphorylation at 1 uM RAFi, ATP at Km; conditions: read-out: Dundee KSS %inh at 1 uM
T6 construct: gene MAP2K1
T6 sequence (P29678 whole entry): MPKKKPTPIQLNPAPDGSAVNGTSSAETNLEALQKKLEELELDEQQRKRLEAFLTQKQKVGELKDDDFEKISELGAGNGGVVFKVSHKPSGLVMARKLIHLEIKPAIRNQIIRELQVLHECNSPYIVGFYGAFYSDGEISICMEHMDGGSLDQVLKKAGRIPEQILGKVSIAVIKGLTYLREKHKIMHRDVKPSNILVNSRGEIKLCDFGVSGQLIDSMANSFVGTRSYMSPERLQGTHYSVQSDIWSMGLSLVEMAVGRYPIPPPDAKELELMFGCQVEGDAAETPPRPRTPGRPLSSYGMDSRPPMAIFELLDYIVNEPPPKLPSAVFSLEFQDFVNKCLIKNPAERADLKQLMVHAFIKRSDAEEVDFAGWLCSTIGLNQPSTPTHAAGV
Description: as §1

p38 = biological target: T7, p38 (Homo sapiens, UniProt Q16539); parameters: University of Dundee kinase panel, percent inhibition of phosphorylation at 1 uM RAFi, ATP at Km; conditions: read-out: Dundee KSS %inh at 1 uM
T7 construct: gene MAPK14
Description: as §1

JNK2 = biological target: T8, JNK2 (Homo sapiens, UniProt P45984); parameters: University of Dundee kinase panel, percent inhibition of phosphorylation at 1 uM RAFi, ATP at Km; conditions: read-out: Dundee KSS %inh at 1 uM
T8 construct: gene MAPK9
T8 sequence (P45984 whole entry): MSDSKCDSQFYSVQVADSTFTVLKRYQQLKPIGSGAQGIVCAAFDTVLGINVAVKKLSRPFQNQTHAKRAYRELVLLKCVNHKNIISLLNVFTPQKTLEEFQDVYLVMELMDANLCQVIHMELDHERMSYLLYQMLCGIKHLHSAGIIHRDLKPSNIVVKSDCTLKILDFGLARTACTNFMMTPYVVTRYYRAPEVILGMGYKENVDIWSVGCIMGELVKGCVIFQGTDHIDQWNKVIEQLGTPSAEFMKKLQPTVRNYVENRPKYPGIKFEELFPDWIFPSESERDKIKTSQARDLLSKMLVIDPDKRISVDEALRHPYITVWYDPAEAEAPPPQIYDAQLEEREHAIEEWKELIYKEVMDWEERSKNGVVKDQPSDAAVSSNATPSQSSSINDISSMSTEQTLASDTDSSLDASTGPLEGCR
Description: as §1

PKCa = biological target: T9, PKCa (Homo sapiens, UniProt P17252); parameters: University of Dundee kinase panel, percent inhibition of phosphorylation at 1 uM RAFi, ATP at Km; conditions: read-out: Dundee KSS %inh at 1 uM
T9 construct: gene PRKCA
Description: as §1

JNK1a = biological target: T10, JNK1a (Homo sapiens, UniProt P45983); parameters: University of Dundee kinase panel, percent inhibition of phosphorylation at 1 uM RAFi, ATP at Km; conditions: read-out: Dundee KSS %inh at 1 uM
T10 construct: gene MAPK8; isoform alpha
T10 sequence (P45983 whole entry, canonical isoform): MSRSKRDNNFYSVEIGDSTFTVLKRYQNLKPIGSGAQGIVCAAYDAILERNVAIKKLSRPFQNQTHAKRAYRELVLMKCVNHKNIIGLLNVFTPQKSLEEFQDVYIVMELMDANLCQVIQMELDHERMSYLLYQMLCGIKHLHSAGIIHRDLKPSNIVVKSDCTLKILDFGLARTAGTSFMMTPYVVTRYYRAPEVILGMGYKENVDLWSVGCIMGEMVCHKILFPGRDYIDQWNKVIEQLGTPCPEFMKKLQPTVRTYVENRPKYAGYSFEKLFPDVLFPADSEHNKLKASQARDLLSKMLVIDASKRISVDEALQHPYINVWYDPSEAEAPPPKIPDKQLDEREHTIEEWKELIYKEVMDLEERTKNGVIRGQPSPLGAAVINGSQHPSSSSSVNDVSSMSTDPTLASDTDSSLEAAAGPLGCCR
Description: as §1

PRK2 = biological target: T11, PRK2 (Homo sapiens, UniProt Q16513); parameters: University of Dundee kinase panel, percent inhibition of phosphorylation at 1 uM RAFi, ATP at Km; conditions: read-out: Dundee KSS %inh at 1 uM
T11 construct: gene PKN2
T11 sequence (Q16513 whole entry): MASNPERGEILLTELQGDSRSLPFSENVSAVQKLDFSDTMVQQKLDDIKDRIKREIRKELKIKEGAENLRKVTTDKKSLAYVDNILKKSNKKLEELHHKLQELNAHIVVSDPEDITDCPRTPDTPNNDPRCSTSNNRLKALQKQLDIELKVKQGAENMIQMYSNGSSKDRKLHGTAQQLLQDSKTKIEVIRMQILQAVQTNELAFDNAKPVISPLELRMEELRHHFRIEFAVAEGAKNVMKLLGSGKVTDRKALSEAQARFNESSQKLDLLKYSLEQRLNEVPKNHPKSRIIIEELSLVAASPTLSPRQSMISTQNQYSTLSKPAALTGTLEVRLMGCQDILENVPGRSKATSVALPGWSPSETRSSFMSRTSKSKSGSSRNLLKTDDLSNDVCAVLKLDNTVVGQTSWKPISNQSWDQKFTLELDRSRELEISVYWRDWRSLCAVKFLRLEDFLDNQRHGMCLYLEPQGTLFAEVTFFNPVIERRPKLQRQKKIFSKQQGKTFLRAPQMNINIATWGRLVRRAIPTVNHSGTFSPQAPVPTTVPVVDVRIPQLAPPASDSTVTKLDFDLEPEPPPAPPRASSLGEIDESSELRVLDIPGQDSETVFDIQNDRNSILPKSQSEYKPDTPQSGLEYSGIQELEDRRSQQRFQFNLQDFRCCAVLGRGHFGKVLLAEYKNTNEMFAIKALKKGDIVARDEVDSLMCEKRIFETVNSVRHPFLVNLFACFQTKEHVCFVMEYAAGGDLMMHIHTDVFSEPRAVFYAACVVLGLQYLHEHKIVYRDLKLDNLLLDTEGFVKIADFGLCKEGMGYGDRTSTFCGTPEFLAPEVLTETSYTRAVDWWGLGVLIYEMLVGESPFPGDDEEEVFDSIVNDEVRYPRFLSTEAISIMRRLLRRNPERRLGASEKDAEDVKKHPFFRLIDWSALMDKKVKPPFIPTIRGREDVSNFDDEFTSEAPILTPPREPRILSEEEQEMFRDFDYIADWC
Description: as §1

CaMK1a = biological target: T12, CaMK1a (Homo sapiens, UniProt Q14012); parameters: University of Dundee kinase panel, percent inhibition of phosphorylation at 1 uM RAFi, ATP at Km; conditions: read-out: Dundee KSS %inh at 1 uM
T12 construct: gene CAMK1
T12 sequence (Q14012 whole entry): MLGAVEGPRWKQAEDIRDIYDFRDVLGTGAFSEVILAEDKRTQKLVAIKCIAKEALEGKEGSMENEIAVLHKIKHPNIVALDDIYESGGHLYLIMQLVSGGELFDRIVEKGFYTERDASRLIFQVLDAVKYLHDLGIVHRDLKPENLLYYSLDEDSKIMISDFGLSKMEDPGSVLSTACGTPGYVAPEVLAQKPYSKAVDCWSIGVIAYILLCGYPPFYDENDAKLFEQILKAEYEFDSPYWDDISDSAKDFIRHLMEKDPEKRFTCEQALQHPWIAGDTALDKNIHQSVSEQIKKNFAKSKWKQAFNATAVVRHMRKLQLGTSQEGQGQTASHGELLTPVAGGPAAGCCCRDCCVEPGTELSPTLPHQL
Description: as §1

Row | Structure (SMILES) | inhibition at 1 µM (PKG1alpha) [%] | Dundee KSS % inhibition at 1uM (PLK1 [1]; inhibitor, Dundee KSS % inhibition at 1uM, 1 µM) [%] | inhibition at 1 µM (PLK1 [1]; read-out: Dundee KSS % inhibition at 1uM) [%] | inhibition at 1 µM (mouse LCK) [%] | inhibition at 1 µM (EEF-2 kinase) [%] | inhibition at 1 µM (PLK1 [2]) [%] | inhibition at 1 µM (ERK7) [%] | inhibition at 1 µM (PIM3) [%] | inhibition at 1 µM (mouse ERK2) [%] | inhibition at 1 µM (rabbit MEK1) [%] | inhibition at 1 µM (p38) [%] | inhibition at 1 µM (JNK2) [%] | inhibition at 1 µM (PKCa) [%] | inhibition at 1 µM (JNK1a) [%] | inhibition at 1 µM (PRK2) [%] | inhibition at 1 µM (CaMK1a) [%]
1 | OCCn1cc(-c2cnc3nnn(Cc4ccc5ncccc5c4)c3n2)cn1 [METi, PF-04217903] | 3 | 10.1 | 13.6 | – | – | – | – | – | – | – | – | – | – | – | – | –
2 | N#CCCNc1nccc(-c2cn(CC(F)F)nc2-c2cnc3[nH]ccc3c2)n1 [RAFi, PF-04880594] | – | – | – | 22 | 0 | 47 | 16 | 3 | 48 | 34 | 96 | 95 | 53 | 62 | 16 | 18
